Data from PMC12534982 (Journal of Experimental & Clinical Cancer Research : CR, 2025).

How the values were obtained:
[1] = tested on: human DHODH; conditions: cited from earlier work
[2] = tested on: SW620 cells; assay: DHODH-dependent respiration (permeabilized cells); type: cell-based, human; conditions: 24 h; NK-A 17E-233I 25 µM, Brequinar 100 µM; excess exogenous DHO
Method: Cells were resuspended in MiR05 medium and transferred into the chambers of the Oxygraph-2k instruments. The OCR in digitonin-permeabilized cells was monitored in the presence of the complex I inhibitor (0.5 μM rotenone), 1 mM DHO, 3 mM ADP, 10 μM cytochrome c, and 30 μM Leflunomide. DHODH-mediated respiration was calculated by subtracting the residual respiration rate after the addition of 30 μM Leflunomide from the respiration rate measured in the presence of 0.5 μM rotenone, 1 mM DHO, 3 mM ADP, and 10 μM cytochrome c.

[3] = target: T1, Δ29 DHODH (N-truncated) (Homo sapiens, UniProt Q02127); assay: In vitro DHODH enzyme activity assay; type: biochemical; conditions: 1 mM DHO; ± SD
T1 construct: N-terminal truncated form of human DHODH (Δ29), where the N-terminal transmembrane domain was removed; made in house
T1 sequence (Q02127 29-395, stated change not applied): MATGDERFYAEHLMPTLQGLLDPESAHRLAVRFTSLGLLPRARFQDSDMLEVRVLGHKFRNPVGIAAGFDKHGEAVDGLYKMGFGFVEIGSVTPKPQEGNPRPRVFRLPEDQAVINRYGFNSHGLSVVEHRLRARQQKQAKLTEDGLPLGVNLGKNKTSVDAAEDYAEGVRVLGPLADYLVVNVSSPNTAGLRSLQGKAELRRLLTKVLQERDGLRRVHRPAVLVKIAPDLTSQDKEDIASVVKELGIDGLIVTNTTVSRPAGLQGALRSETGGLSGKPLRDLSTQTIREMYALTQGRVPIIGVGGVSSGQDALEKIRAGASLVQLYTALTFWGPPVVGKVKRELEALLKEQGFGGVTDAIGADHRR
Method: The assays to determine the inhibition constants of inhibitors of the recombinant DHODH enzymes are described in [28, 29].
The IC50 values were determined by fitting the equation V = V max/(1 + (I/IC50)^h) to the assay data using SigmaPlot14 (Systat Software Inc.). In this equation, V represents the measured enzyme activity, while V max indicates the maximum enzyme activity reached. I denotes the inhibitor concentration, and h describes the slope of the fitted curve.

[4] = tested on: SW620 cells; assay: Complex I- and complex II-dependent respiration (permeabilized cells); type: cell-based, human; conditions: 100 µM, 24 h
Method: Following treatment, cells were detached using trypsin–EDTA, washed with PBS, and resuspended in MiR05 media (composed of 110 mM sucrose, 60 mM potassium-lactobionate, 0.5 mM EGTA, 3 mM MgCl2·6H2O, 20 mM taurine, 10 mM KH2PO4, 20 mM HEPES adjusted to pH 7.1 with KOH at 37 °C, and 1 g/L BSA) at a concentration of 5 × 10^5 cells/mL. The cells were then transferred into 2 mL Oxygraph chambers for real-time measurement of OCR. Initial permeabilization was achieved using 7 μg of digitonin, followed by the sequential addition of substrates and inhibitors: 5 mM ADP, 2 mM malate, 10 μM cytochrome c, 5 mM pyruvate, 10 mM glutamate, 10 mM succinate, 0.5 μM rotenone, and 2.5 μM antimycin A. Mitochondrial membrane integrity was confirmed through the addition of cytochrome c (10 μM), with observed changes in OCR remaining below 10%. Complex I-mediated respiration was evaluated following the addition of complex I substrates (malate/pyruvate/glutamate), while complex II-mediated respiration was assessed in the presence of the complex II substrate (succinate) and the complex I inhibitor (rotenone). Residual oxygen consumption after the addition of antimycin A was subtracted from all the results to yield mitochondria-specific rates. […] Oxygen consumption rates were expressed as picomoles (pmol) per second per million cells (Mill) and normalized to the mitochondrial copy number in each sample.

[5] = tested on: colorectal cancer cells; assay: Western blot; type: cell-based, human; conditions: NK-A 17E-233I 25 µM; Brequinar
Method: Cancer cells (2.2 × 10^6) were cultured in 100-mm Petri dishes and treated with DMSO or NK-A 17E-233I (25 µM) for 48 h. Cells were harvested by scrapping into 2 × Laemmli buffer (4% SDS, 20% glycerol, 125 mM Tris–HCl, pH 6.8) and heated at 100 °C for 5 min. A 4 × Laemmli sample buffer containing β-mercaptoethanol was added to the cell lysates. The proteins were separated using sodium dodecyl sulfate polyacrylamide gel electrophoresis (SDS-PAGE) and subsequently transferred to polyvinylidene fluoride (PVDF) membranes (#88518; Thermo Fisher Scientific) following the manufacturer’s protocols. The membranes were blocked at room temperature for 1 h with 5% dried skimmed milk in Tris-buffered saline with Tween-20 (TBS-T) (20 mM Tris–HCl, pH 7.5, 150 mM NaCl, 0.1% Tween-20), and the blots were incubated with the corresponding antibodies at a dilution of 1:1000–1:3000 in a blocking buffer at 4 °C overnight.
Primary antibodies utilized in this study included: anti-human DHODH (#SC-166348; Santa Cruz), anti–CHK1-pS345 (#2348; Cell Signaling), anti-POLD2 (#29765–1-AP; Proteintech), anti-POLD1 (#15646–1-AP; Proteintech), anti-p53 (#SC-126; Santa Cruz), anti-KRAS, clone 4F3 (#SAB1404011; Sigma-Aldrich), anti-GAPDH (#ab9489; Abcam), anti–α-tubulin (#T9026; Sigma-Aldrich), anti-BAX (#SC-23959; Santa Cruz), anti-cytochrome c (#66264–1-IG; Proteintech), anti-DR5 (#3696; Cell Signaling, dilution 1:500), anti–caspase-8 (#SC-56070; Santa Cruz), and anti–caspase-3 (#9662; Cell Signaling, dilution 1:500). The membranes were incubated at room temperature for 1 h with secondary antibodies (diluted 1:3000–5000), either anti-rabbit (#A0545; Sigma-Aldrich) or anti-mouse IgG-horseradish peroxidase-conjugated (#A9044; Sigma-Aldrich), in TBS-T. The images were analyzed and quantified using ImageStudio software (LI-COR) or ImageQuant 10.2 TL analysis software (Cytiva Life Sciences).

[6] = tested on: SW620 cells; conditions: 96 h
[7] = tested on: SW620 cells; assay: Mitochondrial respiration (OCR) in intact cells; type: cell-based, human; conditions: 24 h
Method: Oxygen consumption rate (OCR) was measured using a high-resolution respirometer (Oxygraph-2k, Oroboros Instruments, Innsbruck, Austria). SW620 cells (2.2 × 10^6) were cultured in 100-mm Petri dishes and treated with DMSO or NK-A 17E-233I (25 µM) for 24 h. Cells were harvested at 80% confluency using 0.25% trypsin/EDTA and resuspended in complete DMEM at a concentration of 5 × 10^5 cells/mL. The cells were subsequently analyzed in two 2 mL Oxygraph chambers. Real-time measurements of OCR were conducted at 37 °C under basal conditions and following the sequential addition of inhibitors targeting various mitochondrial respiratory complexes: oligomycin (2.5 μM) to inhibit complex V (to assess ATP-linked respiration and leak rate), carbonyl cyanide-p-trifluoromethoxyphenylhydrazone (FCCP) with stepwise titration in 0.5 μM increments (to evaluate maximal electron transport system respiratory capacity and reserve capacity), and rotenone (0.5 μM) and antimycin A (2.5 μM) to inhibit complex I and complex III, respectively (to measure non-mitochondrial oxygen consumption). The values of OCR were normalized to mitochondrial DNA copy number, which was quantified by qPCR using the primers referenced above. Data analysis was performed using DatLab7 (Oroboros, Austria) software.

[8] = tested on: DHODH; design: method as in PMID 35184687; conditions: 100 µM; same experimental setup; cited from earlier work
[9] = tested on: colorectal cancer cells; assay: Flow cytometry-based cell cycle analysis; design: species or system human; conditions: washout 12 h; NK-A 17E-233I 25 µM, HU 1 mM
Method: Cancer cells (3 × 10^4) were cultured in 48-well plates and treated with DMSO or NK-A 17E-233I (25 µM) for 24 h. Following treatment, all wells were washed with PBS (#P4417; Sigma-Aldrich), and the cells were collected in Eppendorf tubes. The cells were harvested using 0.25% trypsin (#25200056; ThermoScientific) and 0.02% EDTA (1:1) (#17892; ThermoFisher Scientific) for 2 min, followed by the addition of DMEM. The tubes were then centrifuged at 500 × g for 5 min. The supernatant was discarded, and the pellets were fixed in 70% cold ethanol and stored at -20 °C for at least 1 h. The pellets were resuspended in 1 mL PBS and centrifuged at 500 × g at 4 °C for 5 min. The supernatant was discarded once again, and the pellets were subsequently reconstituted in a solution containing propidium iodide (PI; #25,535–16-4, Merck) and RNase (#N8080119, Applied Biosystems), followed by storage at 4 °C overnight. Cell cycle analysis was conducted using a CytoFLEX flow cytometer (Beckman Coulter; 405 nm laser). Cells were gated based on size and granularity on a forward scatter (FSC)/side scatter (SSC) plot, with cell debris excluded from the analysis. Mean fluorescence intensity from 1 × 10^4 cells was recorded. Data analysis was conducted using FlowJo software v10.8.1 (BD Life Sciences).

## O=C1C(O)=C([C@H]2CC[C@H](c3ccc(Cl)cc3)CC2)C(=O)c2ccccc21 [Atovaquone]
[1]
  mode of inhibition with respect to DHO: uncompetitive inhibitors

## Cc1c(-c2ccc(-c3ccccc3F)cc2)nc2ccc(F)cc2c1C(=O)O [Brequinar, reference compound]
[2]
  DHODH-mediated oxygen consumption rate: reduced
[3]
  average of the fitted slopes: 1.1 ± 0.2
[4]
  complex II-mediated respiration: stimulated
[5]
  levels of p53-mutant protein: did not have an observed effect
[6]
  IC50: 100 µM
[7]; 100 µM
  parameters of mitochondrial respiration in intact cells: decreased most of these respiration parameters
[7]; NK-A 17E-233I 25 µM, Brequinar 100 µM
  basal and ATP-linked respiration in intact cells: significantly decreased

## O=C1CC(C(=O)O)NC(=O)N1 (stereo not drawn) [DHO, dihydroorotate]
[8]
  ΔTm: 3.5 °C

## NC(=O)NO [HU, hydroxyurea, reference compound]
[9]
  cell cycle after washout: resumed proliferation

## C/C(O)=C(\C#N)C(=O)Nc1ccc(C(F)(F)F)cc1 [Teriflunomide]
[1]
  mode of inhibition with respect to DHO: uncompetitive inhibitors

## O=C(O)c1cc(=O)[nH]c(=O)[nH]1 [orotate]
[1]; competitive inhibitor concerning DHO
  Ki: 11 µM
